ChEMBL document CHEMBL1153799, “Synthesis of sialic acid derivatives having a C=C double bond substituted at the C-5 position and their glycopolymers” (Bioorg Med Chem Lett, 2009)
Activity calls are given as the source filed them.

Columns and labels:
Type in all cases: functional, organism-based
[1] = test system: Influenza A virus; experiment: Inhibition of human Influenza virus A/PR/8/34 (H1N1)-mediated hemagglutinination of erythrocytes; conditions: A/Puerto Rico/8/1934(H1N1)
[2] = test system: Influenza A virus; experiment: Inhibition of duck Influenza A virus A/DK/HK/313/78(H5N3)-mediated hemagglutinination of erythrocytes
[3] = test system: H3N2 subtype; experiment: Inhibition of human Influenza virus A/Aichi/2/68(H3N2)-mediated hemagglutinination of erythrocytes; conditions: A/Aichi/2/1968(H3N2)

Measured: Activity

C=CC(=O)NCCCCCC(=O)N[C@H]1[C@H]([C@H](O)[C@H](O)CO)O[C@](SCCCCCCCCCCCC)(C(=O)O)C[C@@H]1O
active: all assays above

C=CC(=O)NCC(=O)N[C@H]1[C@H]([C@H](O)[C@H](O)CO)O[C@](SCCCCCCCCCCCC)(C(=O)O)C[C@@H]1O
active: all assays above
